Test results as given in ChEMBL document CHEMBL2311503, “Synthesis and anti-angiogenic activity of benzothiazole, benzimidazole containing phthalimide derivatives” (Bioorg Med Chem Lett, 2013).
Activity calls are given as the source filed them. No cut-off for these calls is given here.

Organism: Gallus gallus
Experiment: Antiangiogenic activity in chicken embryo chorioallantoic membrane assessed as inhibition of growth of new vessels proximity at 10 uM after 6 hrs by CAM assay
Assay type: functional, tissue-based

Compound	inhibition
Cc1ccc2c(c1)C(=O)N(c1nc3ccccc3s1)C2=O	Active
O=C1c2ccccc2C(=O)N1c1ccc2ncsc2c1	Active
O=C1c2ccccc2C(=O)N1c1nc2ccccc2[nH]1	Active
O=C1c2ccccc2C(=O)N1c1nc2ccccc2s1	Active
O=C1c2ccccc2C(=O)N1c1cccc2nsnc12	Active
